Measured values taken from paper PMC4139342, “Pharmacokinetics-Pharmacodynamics Analysis of Bicyclic 4-Nitroimidazole Analogs in a Murine Model of Tuberculosis” (PLoS ONE, 2014).
Converted amounts (≈) assume the structure as drawn.

How the values were obtained:
in vivo [1] = details: female, CD-1, mouse, po, 25 mg/kg
in vivo [2] = details: female, CD-1, mouse, po, 25 mg/kg; remark: listed apart in the source
[3] = not given; remark: listed apart in the source
in vivo [4] = details: female, CD-1, mouse, iv, 5 mg/kg; for clearance: i.v. CL
[5] = In vivo plasma PK after intravenous dosing; details: female, CD-1, mouse, plasma, iv, 5 mg/kg, T1/2 (i.v), mice, i.v. dosing at 5 mg/kg
[6] = In vivo plasma PK after oral dosing in CM-2 formulation; details: female, CD-1, mouse, plasma, po, 25 mg/kg
[7] = system: M. tuberculosis (Mtb) (H37Rv, ATCC 27294); assay: microbe, parasite or virus in culture; type: cell-based; details: for MIC99: Mycobacterium tuberculosis
[8] = female, CD-1, mouse, in vivo, po, 25 mg/kg
[9] = cited from earlier work
[10] = female, CD-1, mouse, in vivo, po, 25 mg/kg; remark: listed apart in the source
[11] = Cytotoxicity against THP1 macrophage cell lines; type: cell-based; details: human
Mtb H37Rv = assay: In vivo mouse efficacy, established murine TB model; parameters: species or system Balb/c mice; details: for Efficacy compared with PA-824, in words: significance at P<0.05
Protocol: In vivo mouse efficacy studies were determined after intranasal infection of Balb/c mice with 10^3 cfu Mtb H37Rv. Treatment was initiated 4 weeks after infection. Compounds were orally administered in CM-2 formulation for 4 weeks daily. Bacterial loads were determined at 2 and 4 weeks post treatment. Statistical analysis was done by a one-way analysis of variance, followed by a multiple comparison analysis of variance by a one-way Tukey test (GraphPad Prism, version 5.02, San Diago, California USA, www.graphpad.com). Differences were considered statistically significant at the 95% level of confidence.

in vitro [12] = details: human, Caco-2
in vitro [13] = details: mouse, plasma
[14] = In vivo lung PK after oral dosing; details: female, CD-1, mouse, 25 mg/kg
[15] = 25 mg/kg oral daily for 4 weeks, 5 animals

SMILES | PAMPA %FA | PAMPA Log Pe | AUC (in vivo [1]) | Cmax (in vivo [1]) | Tmax (in vivo [1]) | bioavailability (in vivo [1]) | Tmax (in vivo [2]) | Solubility pH 6.8 [3] | Vd (in vivo [4]) | clearance (in vivo [4]) | half-life [5] | logP (physchem) | half-life [6] | MIC99 [7] | Lung AUC24 [8] | Lung Cmax [8] | other results
O=[N+]([O-])c1cn2c(n1)OC[C@@H](NCc1ccc(OC(F)(F)F)c(O)c1)C2 [NI-147] | 43% | –5.2 cm/sec | 20 ng·h/mL | 40 ng/mL | 6 min | 0.3% | 6 min | 56.0 µg/mL | 0.4 L/kg | 70.8 mL/min/kg | 18 min | 2.4 | 12 min | 0.03 µg/mL (≈ 0.0802 µM) | 2.6 µg·h/g | 0.5 µg/g | 
CC[C@H]1OC(=O)[C@H](C)[C@@H](O[C@H]2C[C@@](C)(OC)[C@@H](O)[C@H](C)O2)[C@H](C)[C@@H](O[C@@H]2O[C@H](C)C[C@H](N(C)C)[C@H]2O)[C@](C)(O)C[C@@H](C)CN(C)[C@H](C)[C@@H](O)[C@]1(C)O [Azithromycin] |  |  |  |  |  |  |  |  |  |  |  |  |  |  |  |  | AUC lung/serum [9]: 21; Vss [9]: 33 L/kg
O=[N+]([O-])c1cn2c(n1)OC[C@@H](NCc1ccc(OC(F)(F)F)c(Cl)c1)C2 [NI-135] | 90% | –4.5 cm/sec | 4800 ng·h/mL | 1200 ng/mL | 30 min | 51% | 30 min | 77.0 µg/mL | 4.2 L/kg | 41 mL/min/kg | 240 min | 3 | 174 min | 0.03 µg/mL (≈ 0.0764 µM) | 18.6 µg·h/g | 5.5 µg/g | Plasma free fCmax [10]: 0.1 µg/mL; CC50 [11]: > 10 µg/mL; Kp (in vivo [2]; Lung to Plasma ratio AUC24): 3.9; Kp (in vivo [2]; Lung to Plasma ratio Cmax): 4.6; Mean log lung CFU reduction ± SEM compared to untreated controls (Mtb H37Rv; [15]): 1.48 ± 0.07 log CFU; Mean log lung CFU ± SEM (Mtb H37Rv; [15]): 4.76±0.07 log CFU; Efficacy compared with PA-824, in words (Mtb H37Rv; 25 mg/kg oral daily for 4 weeks): comparable efficacy to PA-824; Mean log lung CFU ± SEM (Mtb H37Rv; 100 mg/kg oral daily for 4 weeks, 5 animals): 4.36±0.07 log CFU; Efficacy compared with PA-824, in words (Mtb H37Rv; 100 mg/kg oral daily for 4 weeks): comparable efficacy to PA-824; Dose dependence of efficacy, in words (Mtb H37Rv; 25 versus 100 mg/kg oral daily for 4 weeks): dose dependent increase in efficacy; log reduction at 25 mg/kg (Mtb H37Rv; Mycobacterium tuberculosis, H37RV, po, 672 h, 25 mg/kg oral daily for 4 weeks, 5 animals, read-out: Mean log lung CFU reduction ± SEM compared to untreated controls): 1.48 ± 0.07; log reduction at 100 mg/kg (Mtb H37Rv; Mycobacterium tuberculosis, H37RV, po, 672 h, 100 mg/kg oral daily for 4 weeks, 5 animals, read-out: Mean log lung CFU reduction ± SEM compared to untreated controls): 1.88 ± 0.07; In vitro potency relative to PA-824 [7]: 10 times; Papp A→B (in vitro [12]): 23.4 ×10⁻⁶ cm/s; Papp B→A (in vitro [12]): 15.3 ×10⁻⁶ cm/s; efflux ratio (in vitro [12]): 0.6; fraction unbound (in vitro [13]): 0.085; half-life [14]: 198 min; Absolute lung concentrations, fold lower than PA-824 [8]: 2.5-7.5 fold
COc1nc2ccc(Br)cc2cc1[C@@H](c1ccccc1)[C@@](O)(CCN(C)C)c1cccc2ccccc12 [TMC207] |  |  |  |  |  |  |  |  |  |  |  |  |  |  |  |  | AUC L/P ratio ([9]; lungs): 22
